pKd: −log10 of the molar value.
Columns and labels:
BerB = target: T1, BerB (Burkholderia cenocepacia, UniProt B4EHY3); experiment: SPR, steady-state affinity fit; assay type: binding; conditions: labelled compound; biotinylated c-di-GMP immobilised on chip, protein injected; HEPES buffer pH 7.4, 150 mmol/L NaCl, 0.05% Tween
T1 construct: gene BCAM1342; berB in pGEX-6P-2, expressed in E. coli Rosetta (DE3) pLysS as GST fusion, eluted with glutathione
Excerpt: SPR, steady-state affinity fit on BerB | BerB was able to bind to the biotinylated c‐di‐GMP in a concentration‐dependent manner

BerA = target: T2, BerA (Burkholderia cenocepacia, UniProt B4EIC5); experiment: SPR, steady-state affinity fit; assay type: binding; conditions: labelled compound; biotinylated c-di-GMP immobilised on chip, protein injected; PBS buffer pH 7.4; known binder as positive control
T2 construct: gene BCAM1349; berA in pGEX-6P-2, expressed in E. coli Rosetta (DE3) pLysS as GST fusion, eluted with glutathione
T2 sequence (B4EIC5 entry or part of it): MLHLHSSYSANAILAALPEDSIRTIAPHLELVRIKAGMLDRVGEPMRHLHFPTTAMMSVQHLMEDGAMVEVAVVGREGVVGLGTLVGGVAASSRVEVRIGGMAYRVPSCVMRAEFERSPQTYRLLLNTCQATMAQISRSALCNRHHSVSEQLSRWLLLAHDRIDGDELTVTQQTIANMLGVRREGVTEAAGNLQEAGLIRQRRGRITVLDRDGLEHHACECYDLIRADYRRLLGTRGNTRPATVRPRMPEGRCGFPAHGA

T1 sequence (B4EHY3 entry or part of it): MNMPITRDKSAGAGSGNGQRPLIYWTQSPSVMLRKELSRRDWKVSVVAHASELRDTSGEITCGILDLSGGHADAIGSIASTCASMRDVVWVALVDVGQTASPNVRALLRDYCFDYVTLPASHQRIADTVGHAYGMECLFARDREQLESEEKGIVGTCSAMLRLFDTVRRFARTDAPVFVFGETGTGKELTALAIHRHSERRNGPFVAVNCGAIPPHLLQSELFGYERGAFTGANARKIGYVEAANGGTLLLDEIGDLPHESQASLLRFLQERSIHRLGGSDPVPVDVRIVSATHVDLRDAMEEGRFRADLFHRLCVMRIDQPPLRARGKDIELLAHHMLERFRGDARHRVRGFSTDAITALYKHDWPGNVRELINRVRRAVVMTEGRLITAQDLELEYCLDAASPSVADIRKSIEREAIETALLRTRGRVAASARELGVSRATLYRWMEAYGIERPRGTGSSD

## biotinylated c-di-GMP
BerB
  pKd: ~5.52
BerA
  pKd: ~5.52

From PMC5552954, “Regulation of Burkholderia cenocepacia biofilm formation by RpoN and the c‐di‐GMP effector BerB” (MicrobiologyOpen, 2017)
